Patent US20080176787A1, “Parathyroid hormone analogues and methods of use” (priority 2005, published 2008)
Positions of bridges follow the written chain, without caps; N, C: chain ends. Residues, ends and D or L forms follow the SMILES beside them.

System: gonad-intact cynomolgus monkeys
Assay: 52-week (12 months) daily subcutaneous study in gonad-intact young cynomolgus monkeys: bone mass, histomorphometry, % cortical porosity
Format: in vivo
Settings: for % Cortical Porosity: Tibial Mid-Diaphysis, 12 months
Method: The peptide [Leu^27]cyclo[Glu^22-Lys^26]-hPTH-(1-31)-NH2 Ostabolin-C™ was administered daily by subcutaneous injection to gonad-intact cynomolgus monkeys (4/sex/group) at dose levels of 0, 2, 10 and 25 μg/kg for 52 weeks. Monkeys were 30 to 40 months of age (2.3-3.5 kg) at treatment start. Tibiae were retained for histomorphometry following labeling with calcein green 15 and 5 days prior to euthanasia. Bone mass, as measured by DXA (dual-energy x-ray absorptiometry) and QCT (quantitative computed tomography), was increased at the lumbar spine, femur and tibia. Changes in vertebral BMD (bone mineral density) translated into significant increases in bone strength. […] Tibial cancellous bone volume increased by more than 50% in all the peptide [Leu^27]cyclo[Glu^22-Lys^26]-hPTH-(1-31)-NH2 treated groups compared to controls and in the tibial mid-diaphysis, increases in cortical width and relative cortical area with concurrent decreases in medullary area were observed. […] Increases in indices of bone formation were associated with decreases in indices of bone resorption (decreased bone resorption markers, decreased osteoclast surface area, minimal cortical porosity), consistent with the uncoupling of these events. This combination of anabolic and anti-catabolic actions may have significant therapeutic value in the treatment of osteoporosis.
Comparative data regarding increase in cortical bone porosity in monkey subjects using Ostabolin C at a variety of doses and using the prior art PTHs 1-34 is shown below.

CC[C@H](C)[C@H](NC(=O)[C@H](CCC(=O)O)NC(=O)[C@H](CO)NC(=O)[C@@H](NC(=O)[C@@H](N)CO)C(C)C)C(=O)N[C@@H](CCC(N)=O)C(=O)N[C@@H](CC(C)C)C(=O)N[C@@H](CCSC)C(=O)N[C@@H](Cc1c[nH]cn1)C(=O)N[C@@H](CC(N)=O)C(=O)N[C@@H](CC(C)C)C(=O)NCC(=O)N[C@@H](CCCCN)C(=O)N[C@@H](Cc1c[nH]cn1)C(=O)N[C@@H](CC(C)C)C(=O)N[C@@H](CC(N)=O)C(=O)N[C@@H](CO)C(=O)N[C@@H](CCSC)C(=O)N[C@@H](CCC(=O)O)C(=O)N[C@@H](CCCN=C(N)N)C(=O)N[C@H](C(=O)N[C@H]1CCC(=O)NCCCC[C@@H](C(=O)N[C@@H](CC(C)C)C(=O)N[C@@H](CC(C)C)C(=O)N[C@@H](CCC(N)=O)C(=O)N[C@@H](CC(=O)O)C(=O)N[C@H](C(N)=O)C(C)C)NC(=O)[C@H](CCCN=C(N)N)NC(=O)[C@H](CC(C)C)NC(=O)[C@H](Cc2c[nH]c3ccccc23)NC1=O)C(C)C [Ostabolin-C, [Leu^27]cyclo[Glu^22-Lys^26]-PTH-(1-31)-NH2] (H-SVSEIQLMHNLGKHLNSMERVEWLRKLLQDV-NH2; lactam 22-26)
% Cortical Porosity (F, 2 μg/kg/day): 2.5 ± 0.41% | % Cortical Porosity (F, 10 μg/kg/day): 2.6 ± 0.85% | % Cortical Porosity (F, 25 μg/kg/day): 3.2 ± 0.87% | % Cortical Porosity (M, 2 μg/kg/day): 4.2 ± 0.29% | % Cortical Porosity (M, 10 μg/kg/day): 5.1 ± 1.08% | % Cortical Porosity (M, 25 μg/kg/day): 8.0 ± 5.54% | cortical porosity (two highest dose levels, 52 weeks): Only minor increases
